# Experimental data published in ChEMBL document CHEMBL1201862, “PubChem BioAssay data set” (2004).
#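 Exposure lasted 48 hours, with cells grown in 96-well plates and compounds tested at five concentrations. GI50: concentration for 50% inhibition of growth.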 Calls of active or inactive are those of the source. Cut-off read from the data, not from the text of the source: active = GI50 up to about 1.1 µM and inactive = higher.
# Tests used:
# Assay in all cases: NCI tumour cell line growth inhibition, 48 h
# 786-0 = test system: 786-0
# A549 = test system: A549
# ACHN = test system: ACHN
# BT-549 = test system: BT-549
# CAKI-1 = test system: CAKI-1
# CCRF-CEM = test system: CCRF-CEM
# COLO 205 = test system: COLO 205
# DU-145 = test system: DU-145
# EKVX = test system: EKVX
# HCC 2998 = test system: HCC 2998
# HCT-116 = test system: HCT-116
# HCT-15 = test system: HCT-15
# HL-60 = test system: HL-60
# HOP-62 = test system: HOP-62
# HOP-92 = test system: HOP-92
# HT-29 = test system: HT-29
# Hs-578T = test system: Hs-578T
# IGROV-1 = test system: IGROV-1
# K562 = test system: K562
# KM12 = test system: KM12
# LOX IMVI = test system: LOX IMVI
# M14 = test system: M14
# MCF7 = test system: MCF7
# MDA-MB-231 = test system: MDA-MB-231
# MDA-MB-435 = test system: MDA-MB-435
# MDA-N = test system: MDA-N
# MOLT-4 = test system: MOLT-4
# NCI-H460 = test system: NCI-H460
# NCI/ADR-RES = test system: NCI/ADR-RES
# OVCAR-3 = test system: OVCAR-3
# OVCAR-4 = test system: OVCAR-4
# OVCAR-5 = test system: OVCAR-5
# OVCAR-8 = test system: OVCAR-8
# PC-3 = test system: PC-3
# RPMI-8226 = test system: RPMI-8226
# RXF 393 = test system: RXF 393
# SF-268 = test system: SF-268
# SF-295 = test system: SF-295
# SF-539 = test system: SF-539
# SK-MEL-28 = test system: SK-MEL-28
# SK-MEL-2 = test system: SK-MEL-2
# SK-MEL-5 = test system: SK-MEL-5
# SK-OV-3 = test system: SK-OV-3
# SN12C = test system: SN12C
# SNB-19 = test system: SNB-19
# SNB-75 = test system: SNB-75
# SR = test system: SR
# SW-620 = test system: SW-620
# T47D = test system: T47D
# TK-10 = test system: TK-10
# U-251 = test system: U-251
# UACC-257 = test system: UACC-257
# UACC-62 = test system: UACC-62
# UO-31 = test system: UO-31
# Malme-3M = test system: Malme-3M
# NCI-H23 = test system: NCI-H23
# NCI-H522 = test system: NCI-H522
# NCI-H226 = test system: NCI-H226
compound,measurement,setting,value
Cc1cc2nc(N3C(=O)/C(=C/c4cccc([N+](=O)[O-])c4)N=C3c3ccccc3)sc2cc1C,GI50,786-0,40.3 µM (inactive)
same,GI50,A549,36.1 µM (inactive)
same,GI50,ACHN,37 µM (inactive)
same,GI50,BT-549,32.4 µM (inactive)
same,GI50,CAKI-1,52 µM (inactive)
same,GI50,CCRF-CEM,9.95 µM (inactive)
same,GI50,COLO 205,36.3 µM (inactive)
same,GI50,DU-145,42.8 µM (inactive)
same,GI50,EKVX,18.8 µM (inactive)
same,GI50,HCC 2998,21.4 µM (inactive)
same,GI50,HCT-116,23.9 µM (inactive)
same,GI50,HCT-15,36.5 µM
same,GI50,HL-60,19.8 µM (inactive)
same,GI50,HOP-62,35.7 µM (inactive)
same,GI50,HOP-92,6.7 µM (inactive)
same,GI50,HT-29,27.5 µM (inactive)
same,GI50,Hs-578T,24.5 µM (inactive)
same,GI50,IGROV-1,12.5 µM (inactive)
same,GI50,K562,30.1 µM (inactive)
same,GI50,KM12,27.2 µM (inactive)
same,GI50,LOX IMVI,19.2 µM (inactive)
same,GI50,M14,37.2 µM (inactive)
same,GI50,MCF7,16.1 µM (inactive)
same,GI50,MDA-MB-231,62.4 µM (inactive)
same,GI50,MDA-MB-435,12.8 µM (inactive)
same,GI50,MDA-N,12.5 µM (inactive)
same,GI50,MOLT-4,12.9 µM (inactive)
same,GI50,NCI-H460,29.2 µM (inactive)
same,GI50,NCI/ADR-RES,28.4 µM (inactive)
same,GI50,OVCAR-3,32 µM (inactive)
same,GI50,OVCAR-4,25.8 µM (inactive)
same,GI50,OVCAR-5,40.2 µM (inactive)
same,GI50,OVCAR-8,21.4 µM (inactive)
same,GI50,PC-3,17.4 µM (inactive)
same,GI50,RPMI-8226,21.1 µM (inactive)
same,GI50,RXF 393,15.6 µM (inactive)
same,GI50,SF-268,25.9 µM (inactive)
same,GI50,SF-295,32.4 µM (inactive)
same,GI50,SF-539,39.4 µM (inactive)
same,GI50,SK-MEL-28,57.8 µM (inactive)
same,GI50,SK-MEL-2,23.1 µM (inactive)
same,GI50,SK-MEL-5,30.1 µM (inactive)
same,GI50,SK-OV-3,67.8 µM (inactive)
same,GI50,SN12C,26.7 µM (inactive)
same,GI50,SNB-19,34.1 µM (inactive)
same,GI50,SNB-75,6.84 µM (inactive)
same,GI50,SR,14.9 µM (inactive)
same,GI50,SW-620,27 µM (inactive)
same,GI50,T47D,27.1 µM (inactive)
same,GI50,TK-10,71.1 µM (inactive)
same,GI50,U-251,22.8 µM (inactive)
same,GI50,UACC-257,42.6 µM (inactive)
same,GI50,UACC-62,33.5 µM (inactive)
same,GI50,UO-31,32.5 µM (inactive)
COC1CN(C)/C(=N\c2cccc3ccccc23)S1 (configuration not stated),GI50,786-0,> 10 µM (inactive)
same,GI50,A549,> 10 µM (inactive)
same,GI50,ACHN,> 10 µM (inactive)
same,GI50,BT-549,> 10 µM (inactive)
same,GI50,CAKI-1,> 10 µM (inactive)
same,GI50,CCRF-CEM,> 10 µM (inactive)
same,GI50,COLO 205,> 10 µM (inactive)
same,GI50,DU-145,> 10 µM (inactive)
same,GI50,HCC 2998,> 10 µM (inactive)
same,GI50,HCT-116,> 10 µM (inactive)
same,GI50,HCT-15,> 10 µM
same,GI50,HL-60,> 10 µM (inactive)
same,GI50,HOP-62,> 10 µM (inactive)
same,GI50,HOP-92,> 10 µM (inactive)
same,GI50,HT-29,> 10 µM (inactive)
same,GI50,Hs-578T,> 10 µM (inactive)
same,GI50,IGROV-1,> 10 µM (inactive)
same,GI50,K562,> 10 µM (inactive)
same,GI50,KM12,> 10 µM (inactive)
same,GI50,LOX IMVI,> 10 µM (inactive)
same,GI50,M14,> 10 µM (inactive)
same,GI50,MCF7,> 10 µM (inactive)
same,GI50,MDA-MB-231,> 10 µM (inactive)
same,GI50,MDA-MB-435,> 10 µM (inactive)
same,GI50,MDA-N,> 10 µM (inactive)
same,GI50,MOLT-4,> 10 µM (inactive)
same,GI50,Malme-3M,> 10 µM (inactive)
same,GI50,NCI-H23,> 10 µM (inactive)
same,GI50,NCI-H522,> 10 µM (inactive)
same,GI50,NCI/ADR-RES,> 10 µM (inactive)
same,GI50,OVCAR-4,> 10 µM (inactive)
same,GI50,OVCAR-5,> 10 µM (inactive)
same,GI50,OVCAR-8,> 10 µM (inactive)
same,GI50,PC-3,> 10 µM (inactive)
same,GI50,RPMI-8226,> 10 µM (inactive)
same,GI50,SF-268,> 10 µM (inactive)
same,GI50,SF-295,2.75 µM (inactive)
same,GI50,SF-539,> 10 µM (inactive)
same,GI50,SK-MEL-28,> 10 µM (inactive)
same,GI50,SK-MEL-5,> 10 µM (inactive)
same,GI50,SK-OV-3,> 10 µM (inactive)
same,GI50,SN12C,> 10 µM (inactive)
same,GI50,SNB-19,> 10 µM (inactive)
same,GI50,SNB-75,> 10 µM (inactive)
same,GI50,SR,> 10 µM (inactive)
same,GI50,SW-620,> 10 µM (inactive)
same,GI50,T47D,> 10 µM (inactive)
same,GI50,TK-10,> 10 µM (inactive)
same,GI50,U-251,> 10 µM (inactive)
same,GI50,UACC-257,> 10 µM (inactive)
same,GI50,UACC-62,> 10 µM (inactive)
O=c1cc(-c2ccccc2)[nH]c2ccc(N3CCCCC3)cc12,GI50,786-0,0.0364 µM (active)
same,GI50,A549,0.0488 µM (active)
same,GI50,ACHN,0.048 µM (active)
same,GI50,BT-549,40.9 µM (inactive)
same,GI50,CAKI-1,< 0.0221 µM (active)
same,GI50,CCRF-CEM,< 0.0161 µM (active)
same,GI50,COLO 205,0.017 µM (active)
same,GI50,DU-145,0.0468 µM (active)
same,GI50,EKVX,> 100 µM (inactive)
same,GI50,HCC 2998,< 0.0224 µM (active)
same,GI50,HCT-116,< 0.0184 µM (active)
same,GI50,HCT-15,0.0329 µM
same,GI50,HL-60,< 0.0126 µM (active)
same,GI50,HOP-62,0.0305 µM (active)
same,GI50,HOP-92,< 0.01 µM (active)
same,GI50,HT-29,0.0566 µM (active)
same,GI50,Hs-578T,< 0.0152 µM (active)
same,GI50,IGROV-1,0.0506 µM (active)
same,GI50,K562,< 0.0129 µM (active)
same,GI50,KM12,0.0142 µM (active)
same,GI50,LOX IMVI,0.0465 µM (active)
same,GI50,M14,0.0166 µM (active)
same,GI50,MCF7,0.0428 µM (active)
same,GI50,MDA-MB-231,0.0501 µM (active)
same,GI50,MDA-MB-435,< 0.01 µM (active)
same,GI50,MDA-N,< 0.01 µM (active)
same,GI50,MOLT-4,0.0605 µM (active)
same,GI50,Malme-3M,> 100 µM (inactive)
same,GI50,NCI-H226,0.0193 µM (active)
same,GI50,NCI-H23,0.023 µM (active)
same,GI50,NCI-H460,0.0306 µM (active)
same,GI50,NCI-H522,0.0133 µM (active)
same,GI50,NCI/ADR-RES,0.0204 µM (active)
same,GI50,OVCAR-3,0.0166 µM (active)
same,GI50,OVCAR-4,> 100 µM (inactive)
same,GI50,OVCAR-5,4.35 µM (inactive)
same,GI50,OVCAR-8,0.0462 µM (active)
same,GI50,PC-3,0.0297 µM (active)
same,GI50,RPMI-8226,0.0333 µM (active)
same,GI50,RXF 393,< 0.0191 µM (active)
same,GI50,SF-268,0.228 µM (active)
same,GI50,SF-295,< 0.0117 µM (active)
same,GI50,SF-539,< 0.0159 µM (active)
same,GI50,SK-MEL-28,0.0267 µM (active)
same,GI50,SK-MEL-2,0.0476 µM (active)
same,GI50,SK-MEL-5,< 0.0153 µM (active)
same,GI50,SK-OV-3,0.0368 µM (active)
same,GI50,SN12C,0.0373 µM (active)
same,GI50,SNB-19,0.0347 µM (active)
same,GI50,SR,0.0172 µM (active)
same,GI50,SW-620,0.0468 µM (active)
same,GI50,T47D,> 100 µM (inactive)
same,GI50,TK-10,0.998 µM (active)
same,GI50,U-251,0.0171 µM (active)
same,GI50,UACC-257,42.6 µM (inactive)
same,GI50,UACC-62,< 0.01 µM (active)
same,GI50,UO-31,> 10 µM (inactive)
